Assay results from the Kinase Knowledgebase extract (Sharma et al. 2016).

target: ROCK2 (human) (UniProt O75116); test: Assessment of ROCK2 Kinase Activity
Sequence (O75116 whole entry, looked up): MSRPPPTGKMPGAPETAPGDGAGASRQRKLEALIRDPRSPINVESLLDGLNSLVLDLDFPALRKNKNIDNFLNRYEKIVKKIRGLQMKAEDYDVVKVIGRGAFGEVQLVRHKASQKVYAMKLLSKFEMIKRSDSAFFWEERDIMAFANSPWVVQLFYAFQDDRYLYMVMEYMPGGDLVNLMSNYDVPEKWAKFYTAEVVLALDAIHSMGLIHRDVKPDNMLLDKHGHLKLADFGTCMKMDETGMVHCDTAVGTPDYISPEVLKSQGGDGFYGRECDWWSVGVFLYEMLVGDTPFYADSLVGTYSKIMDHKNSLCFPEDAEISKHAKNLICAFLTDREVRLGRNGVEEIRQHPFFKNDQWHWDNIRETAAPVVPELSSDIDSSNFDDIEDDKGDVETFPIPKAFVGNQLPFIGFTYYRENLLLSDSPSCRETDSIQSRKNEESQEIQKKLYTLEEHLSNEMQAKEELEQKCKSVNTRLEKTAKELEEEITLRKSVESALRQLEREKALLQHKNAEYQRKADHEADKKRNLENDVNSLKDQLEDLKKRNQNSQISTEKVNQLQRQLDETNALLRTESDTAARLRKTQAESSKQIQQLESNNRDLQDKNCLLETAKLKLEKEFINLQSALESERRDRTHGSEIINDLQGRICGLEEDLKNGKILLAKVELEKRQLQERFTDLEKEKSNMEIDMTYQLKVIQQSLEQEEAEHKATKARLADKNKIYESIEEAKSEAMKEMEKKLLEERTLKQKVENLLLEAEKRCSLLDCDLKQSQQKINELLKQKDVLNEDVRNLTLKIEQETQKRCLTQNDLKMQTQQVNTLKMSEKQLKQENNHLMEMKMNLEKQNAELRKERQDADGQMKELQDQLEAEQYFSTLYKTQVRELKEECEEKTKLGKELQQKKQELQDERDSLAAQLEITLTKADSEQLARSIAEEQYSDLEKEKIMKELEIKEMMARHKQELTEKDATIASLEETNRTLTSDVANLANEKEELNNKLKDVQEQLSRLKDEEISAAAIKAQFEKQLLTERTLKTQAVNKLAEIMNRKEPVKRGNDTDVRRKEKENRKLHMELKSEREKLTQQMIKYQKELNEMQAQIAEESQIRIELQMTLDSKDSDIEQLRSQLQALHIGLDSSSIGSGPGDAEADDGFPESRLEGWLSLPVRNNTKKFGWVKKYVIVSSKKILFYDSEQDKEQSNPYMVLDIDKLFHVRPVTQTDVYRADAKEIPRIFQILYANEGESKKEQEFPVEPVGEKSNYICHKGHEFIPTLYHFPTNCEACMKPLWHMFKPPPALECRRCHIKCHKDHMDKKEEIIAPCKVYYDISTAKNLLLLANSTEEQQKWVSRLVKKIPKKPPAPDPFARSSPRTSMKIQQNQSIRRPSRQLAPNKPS

IC50, ≤ 1000 nM:
CCCCN1CCC[C@@H](Nc2ccc3c(=O)[nH]ccc3c2)C1
Brc1cc2cnccc2cc1SC1CCCNCC1 (stereo not given)
O=c1[nH]ccc2cc(S(=O)(=O)C3CCNCC3)c(Cl)cc12
O=c1[nH]ccc2cc(N[C@@H]3CCCN(Cc4ccc5ccccc5c4)C3)ccc12
O=c1[nH]ccc2cc(N[C@H]3CCN(CC4CC4)C3)ccc12
Cc1ccc(CN2CC[C@H](Nc3ccc4c(=O)[nH]ccc4c3)C2)cc1
CC(C)CCN1CCC[C@@H](Nc2ccc3c(=O)[nH]ccc3c2)C1
O=c1[nH]ccc2cc(N[C@@H]3CCCN(Cc4ccccc4)C3)ccc12
O=c1[nH]ccc2cc(N[C@H]3CCN(Cc4ccc5ccccc5c4)C3)ccc12
O=c1[nH]ccc2cc(NC3CN(Cc4cccc(Cl)c4F)C3)ccc12
Clc1cc2cnccc2cc1SC1CCCNC1 (stereo not given)
O=c1[nH]ccc2cc(NC3CN(Cc4ccccc4Cl)C3)ccc12
O=c1[nH]ccc2cc(N[C@H]3CCN(Cc4cccc(Cl)c4F)C3)ccc12
O=c1[nH]ccc2cc(SC3CCNCC3)c(Cl)cc12
CCCc1cc2cnccc2cc1SC1CCNCC1
